# According to PMC9607266, “Drug–Drug Interaction Study to Evaluate the Pharmacokinetics, Safety, and Tolerability of Ipatasertib in Combination with Darolutamide in Patients with Advanced Prostate Cancer” (Pharmaceutics, 2022):
# Read-outs that look alike come from different tables or passages of the source.
# What was measured:
# [1] = Phase Ib DDI study: plasma PK of ipatasertib and M1 after ipatasertib 400 mg QD alone and with darolutamide 600 mg BID; type: in vivo; conditions: male, human, oral
# Procedure: (§1) Figure 1 presents an overview of the study design.
# Stable labeled internal standards were used for both analytes.
# Only median, min, and max were evaluated for Tmax.
# Pharmacokinetic parameters (area under the curve (AUC0–tau) and Cmax,ss) were compared between Day 10 of Cycle 1 (ipatasertib alone, as the reference treatment) and Day 28 of Cycle 1 (combination of ipatasertib and darolutamide, as the test treatment) using SAS Version 9.4 by calculating geometric mean ratios and corresponding 90% confidence intervals (CIs) to evaluate the effect of darolutamide on the PK of ipatasertib and M1. A linear mixed model with a fixed effect for treatment and a random effect for patients was used on the natural log-transformed pharmacokinetic parameters. Point estimates for the means and point estimates and corresponding 90% confidence intervals (CIs) for the differences in means between the two treatments (reference and test treatments) were obtained from the linear mixed effects model and then exponentiated to obtain geometric means, geometric mean ratios, and respective 90% CIs on the original scale.
# [2] = Phase Ib DDI study: safety and tolerability (adverse events, ECG); type: in vivo, human
# Excerpt: as §1
# The primary objectives of the study were to characterize the effect of darolutamide on the PK of ipatasertib and its M1 (G-037720) metabolite when administered alone versus in combination with darolutamide and to evaluate the safety and tolerability of the ipatasertib–darolutamide combination. The PK endpoints of the study were to evaluate the plasma PK parameters of ipatasertib and its M1 metabolite and evaluate the PK of darolutamide and its metabolite keto-darolutamide at a steady state of the combination treatment and compare this to historical data. Medications known to impact the PK of ipatasertib or darolutamide (both CY3PA4 substrates) were refrained from being administered during the study conducted and accordingly not co-administered. The safety endpoints of the study were to evaluate the incidences, nature, and severity of AEs and laboratory abnormalities, changes in vital signs, exposure to the study treatment, and to evaluate the changes in ECG parameters with particular focus on the QT interval corrected through the use of Fridericia’s formula (QTcF). The study achieved the first patient first visit on 21 December 2020, and the cut-off date for primary PK and safety analysis presented within this manuscript was 31 August 2021.
# The safety and tolerability assessments consisted of monitoring and recording AEs, including SAEs and AEs of special interest, clinical laboratory assessments, vital signs, a 12 lead ECG, and physical examination. The AEs were recorded from the first admission until the discontinuation of visits. The AE severity was graded from Grade 1 to Grade 5 as per the National Cancer Institute Common Terminology Criteria for Adverse Events version 5.0. The relationship between the AEs and the study drug was indicated as related or not related. The AE terms reported were coded using the standard Medical Dictionary for Regulatory Activities version 24.0’s preferred terms. In order to manage any drug-related toxicities, ipatasertib and darolutamide modifications were specified as follows: An ipatasertib dose could be reduced in decrements of 100 mg up to 200 mg (can be reduced to two dose levels) beyond which the patient must discontinue ipatasertib but may continue treatment with darolutamide. In the case of darolutamide, the dose could be reduced from 600 mg BID to 300 mg BID until symptoms improve. Treatment may then be resumed at a dose of 600 mg, twice daily. A dose reduction below 300 mg BID for darolutamide was not recommended.
# [3] = cited from earlier work
# [4] = cited from earlier work; remark: listed apart in the source
# CYP3A4 [5] = tested on: CYP3A4; set-up: method as in PMID 35428895; conditions: PBPK simulations, ipatasertib 400 mg QD; cited from earlier work
# [6] = set-up: method as in PMID 27872130; conditions: cited from earlier work
# CYP3A4 [7] = conditions: in vitro studies; cited from earlier work
# CYP3A4 [8] = conditions: cited from earlier work
# [9] = Phase Ib DDI study: plasma PK of darolutamide and keto-darolutamide at steady state in combination with ipatasertib; conditions: human, in vivo
# Procedure: This was an open-label, multicenter, Phase Ib study designed to assess the safety, tolerability, and the drug–drug interaction of the combined administration of 400 mg QD oral ipatasertib and 600 mg BID oral darolutamide. […] For this study, no prospective calculations of the statistical power were made; the sample size selected was based on a typical sample size used for DDI studies. […] Figure 1 presents an overview of the study design.
# Plasma concentrations of ipatasertib and its metabolite M1 were determined using a previously reported, validated liquid chromatography–tandem mass spectrometry assay (LC-MS/MS). The lower and upper limit of the quantitation for ipatasertib and M1 was 0.500 ng/mL and 400 ng/mL, respectively. Stable labeled internal standards were used for both analytes. Plasma concentrations of darolutamide and keto-darolutamide were determined by a validated bioanalytical assay using supported liquid extraction and LC-MS/MS detection by Labcorp Early Drug Development Laboratories Inc. (Madison, WI, USA). […] The diastereomers of darolutamide, (S, R)-darolutamide, and (S, S)-darolutamide, were quantified as one entity from a single chromatographic peak. The MS/MS transitions monitored for detection were m/z 399.2 to 178.1 for darolutamide, m/z 397.1 to 136.0 for keto-darolutamide, and 478.2 to 221.0 for the internal standard apalutamide. […]
# [10] = human, in vivo; cited from earlier work
# [11] = itraconazole, strong CYP3A4 and P-gp inhibitor, 100 mg ipatasertib
structure (smiles),measurement,setting,value
CC(C)NC[C@@H](C(=O)N1CCN(c2ncnc3c2[C@H](C)C[C@H]3O)CC1)c1ccc(Cl)cc1 [Ipatasertib],AUC,"[1]; 400 mg, Reference = ipatasertib only, n = 13, linear mixed model, read-out: AUC0–tau,ss, Reference Geometric Mean",2610 ng·h/mL
same,Cmax,"[1]; 400 mg, Reference = ipatasertib only, n = 13, linear mixed model, read-out: Cmax,ss, Reference Geometric Mean",452 ng/mL
same,Cmax,"[1]; 400 mg, ipatasertib 400 mg QD alone, Cycle 1 Day 10, n = 14, geometric mean (%CV), read-out: Cmax,ss",462 ng/mL
same,AUC,"[1]; 400 mg, ipatasertib 400 mg QD alone, Cycle 1 Day 10, n = 14, geometric mean (%CV), tau = 24 h, mCRPC patients, read-out: AUC0–tau,ss",2660 ng·h/mL
same,AUC,"[1]; Test = ipatasertib with darolutamide, n = 13, linear mixed model, read-out: AUC0–tau,ss, Test Geometric Mean",2400 ng·h/mL
same,Cmax,"[1]; Test = ipatasertib with darolutamide, n = 13, linear mixed model, read-out: Cmax,ss, Test Geometric Mean",355 ng/mL
same,AUC(0-t),"[1]; ipatasertib 400 mg QD alone, Cycle 1 Day 10, n = 14, geometric mean (%CV)",2670 ng·h/mL
same,Tmax,"[1]; ipatasertib 400 mg QD alone, Cycle 1 Day 10, n = 14, median (min, max)",1.04 h
same,AUC(0-t),"[1]; ipatasertib 400 mg QD with darolutamide 600 mg BID, Cycle 1 Day 28, n = 13, geometric mean (%CV)",2400 ng·h/mL
same,Cmax,"[1]; ipatasertib 400 mg QD with darolutamide 600 mg BID, Cycle 1 Day 28, n = 13, geometric mean (%CV), read-out: Cmax,ss",355 ng/mL
same,AUC,"[1]; ipatasertib 400 mg QD with darolutamide 600 mg BID, Cycle 1 Day 28, n = 13, geometric mean (%CV), tau = 24 h, read-out: AUC0–tau,ss",2400 ng·h/mL
same,Tmax,"[1]; ipatasertib 400 mg QD with darolutamide 600 mg BID, Cycle 1 Day 28, n = 13, median (min, max)",2 h
same,Total number of deaths,[2]; N = 14,0
same,patients with at least one AE leading to discontinuation of darolutamide,"[2]; male, human, in vivo",0 n (%)
same,patients with at least one AE leading to discontinuation of ipatasertib,"[2]; male, human, in vivo",0 n (%)
same,patients with at least one AE leading to dose interruption of darolutamide,"[2]; male, human, in vivo",0 n (%)
same,patients with at least one AE leading to dose interruption of ipatasertib,"[2]; male, human, in vivo",0 n (%)
same,patients with at least one AE leading to dose reduction of darolutamide,"[2]; male, human, in vivo",0 n (%)
same,patients with at least one AE leading to dose reduction of ipatasertib,"[2]; male, human, in vivo",0 n (%)
same,patients with at least one AE related to any treatment,"[2]; male, human, in vivo",1 (7.1) n (%)
same,patients with at least one AE related to darolutamide only,"[2]; male, human, in vivo",0 n (%)
same,patients with at least one AE related to ipatasertib only,"[2]; male, human, in vivo",1 (7.1) n (%)
same,patients with at least one Grade 5 AE,"[2]; male, human, in vivo",0 n (%)
same,patients with at least one Grade ≥ 3 AE,"[2]; male, human, in vivo",0 n (%)
same,patients with at least one Serious AE,"[2]; male, human, in vivo",0 n (%)
same,patients with at least one: Any treatment discontinuation,"[2]; male, human, in vivo",0 n (%)
same,patients with diarrhea of Grade 1,"[2]; male, human, in vivo",7.1%
same,time to steady-state,[3]; 400 mg QD dose,≤ 7 days
same,median time to maximum concentration (Tmax),[3]; across 25–800 mg doses in patients with cancer,0.5 to 3 h
same,exposures following a high-fat meal versus fasted conditions,[3],comparable
same,median half-life (t1/2),"[3]; oral doses in the range of 200–800 mg, range 27.8–66.9 h",45.0 h
same,increase in exposures when combined with abiraterone,[4]; dedicated drug–drug interaction study,approximately 1.5 fold
same,decrease in ipatasertib exposure when combined with enzalutamide,"[4]; enzalutamide, strong CYP3A4 inducer",approximately 50%
same,increase in AUC0–∞ when combined with itraconazole,[4]; [11],5.45 fold
same,increase in Cmax when combined with itraconazole,[4]; [11],2.26 fold
same,expected increase in midazolam exposure (AUC0–∞),CYP3A4 [5],approximately 1.69 fold
same,human plasma protein binding,[6],low
same,CYP3A4 inhibition in vitro,CYP3A4 [7],time-dependent inhibitor of CYP3A4
same,increase in midazolam AUC0–∞ exposures,CYP3A4 [8]; ipatasertib at 600 mg QD,2.22 fold
"CC(=O)c1cc(C(=O)N[C@@H](C)Cn2ccc(-c3ccc(C#N)c(Cl)c3)n2)[nH]n1 [Keto-darolutamide, keto-darolutamide]","Tmax,ss",[9],"4.13 (1.00, 8.25) h"
same,"AUC0–12 h,ss",[10],82800 ng·h/mL
same,"AUC0–t,ss",[10],82.8 (39.5) h·µg/mL
same,"Cmax,ss",[10],9.4 (35.4) µg/mL
same,effective t1/2,[10],approximately 20 h
CNC(=O)c1ccc(N2C(=S)N(c3ccc(C#N)c(C(F)(F)F)c3)C(=O)C2(C)C)cc1F [enzalutamide],reduction of midazolam exposures,"CYP3A4 [8]; midazolam in combination with enzalutamide, strong CYP3A4 inducer",approximately 85%
